Reference: patent publication EP3717657B1, “A SYSTEM FOR ASSESSING MICROBIAL SUSCEPTIBILITY TO ANTIBIOTIC AGENTS” (Ascilion AB, priority 2017, dated 2019)

Columns and labels:
[1] = system: Staphylococcus aureus ATCC 29213; details: S.aureus, cited from earlier work
E. coli 17 = test: Qualitative susceptibility by glucose consumption, bacteria from plated cultures (Example 2, Table 6); type: cell-based
Protocol: (§1) If the susceptibility score is a qualitative susceptibility score classifying the microorganism as "susceptible", or "non-susceptible" to an antibiotic agent the answer could be given in as little as 1 hour. Bacteria from plated cultures were suspended in cation adjusted Mueller-Hinton broth (SVA, Uppsala, Sweden) supplemented with glucose. Consequently, the concentration of microorgansims was typically two orders of magnitude higher as compared to Example 1. […] The tested microorganisms was one strain of E. faecium, two strains of E.coli and one S. aureus. Table 6. "--" denotes no measurement

E. coli ATCC 25922 [2] = test: as above; type: cell-based
Protocol: as §1

E. faecium [3] = test: as above; type: cell-based
Protocol: as §1

[4] = system: Escherichia coli (ATCC 25922); test: Antibiotic susceptibility by glucose consumption in culture medium, blood culture bottle inoculum (Example 1); type: cell-based; details: for Glucose concentration t=0: 0 minutes; for Glucose concentration t=60: 60 minutes; for Glucose concentration t=120: 120 minutes; for Glucose concentration t=180: 180 minutes; for dC/dT: rate of change in glucose concentration; for Glucose concentration t=240: 240 minutes;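 for dC/dT: rate calculated between the 60 and 180 min readings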
Method in brief: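 Bacteria grown in blood culture bottles until positive, diluted 1:100 into cation-adjusted Mueller-Hinton broth with glucose at 1.0 mg/mL plus antibiotic (µg/mL). Glucose read by glucometer at 0–240 min.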

[5] = system: Enterococcus faecalis ATCC 29212; details: E.faecalis, cited from earlier work
[6] = system: Escherichia coli ATCC 25922; details: E.coli, cited from earlier work
E. coli ATCC 25922 [7] = test: Qualitative susceptibility by glucose consumption, directly from positive BC-bottles (Example 2, Table 7); type: cell-based
E. faecium [8] = test: as above; type: cell-based
Protocol: With slightly lower microbe concentrations e.g. directly from positive BC-bottles (^~10^9 CFU/ml) the results are shown at least within 2 hours, where E. coli ATCC 25922 is classified as susceptible and E. faecium is non-susceptible. Table 7. "--" denotes no measurement

S. aureus = test: Qualitative susceptibility by glucose consumption, bacteria from plated cultures (Example 2, Table 6); type: cell-based
Protocol: If the susceptibility score is a qualitative susceptibility score classifying the microorganism as "susceptible", or "non-susceptible" to an antibiotic agent the answer could be given in as little as 1 hour.
Bacteria from plated cultures were suspended in cation adjusted Mueller-Hinton broth (SVA, Uppsala, Sweden) supplemented with glucose. Consequently, the concentration of microorgansims was typically two orders of magnitude higher as compared to Example 1. […] The tested microorganisms was one strain of E. faecium, two strains of E.coli and one S. aureus. Table 6. "--" denotes no measurement

[9] = range obtained by EUCAST from ISO 20776-1: 2006
[10] = reference MIC value, EUCAST QC tables Version 7.0, 2017

## Gentamicin
[1]; [9]
  MIC EUCAST, range in parentheses: 0.125 to 1 µg/mL
[1]; [10]
  MIC EUCAST: 0.25 to 0.5 µg/mL
E. coli 17; E. coli 17, 256 µg/mL, plated cultures, Table 6
  Qualitative susceptibility score: susceptible
E. coli 17; [Ab] 256 µg/mL, t=15
  Glucose concentration t=15: 131
E. coli 17; [Ab] 256 µg/mL, t=30
  Glucose concentration t=30: 126
E. coli 17; [Ab] 256 µg/mL, t=45
  Glucose concentration t=45: 123
E. coli ATCC 25922 [2]; E. coli ATCC 25922, 256 µg/mL, plated cultures, Table 6
  Qualitative susceptibility score: susceptible
E. coli ATCC 25922 [2]; [Ab] 256 µg/mL, t=15
  Glucose concentration t=15: 156
E. coli ATCC 25922 [2]; [Ab] 256 µg/mL, t=30
  Glucose concentration t=30: 155
E. coli ATCC 25922 [2]; [Ab] 256 µg/mL, t=45
  Glucose concentration t=45: 136
E. faecium [3]; E. faecium, 256 µg/mL, plated cultures, Table 6
  Qualitative susceptibility score: non-susceptible
E. faecium [3]; [Ab] 256 µg/mL, t=0
  Glucose concentration t=0: 79
E. faecium [3]; [Ab] 256 µg/mL, t=15
  Glucose concentration t=15: 47
[4]; E.coli, 80% threshold of rate of change vs reference, between 60 and 180 minutes, obtained in 4 hours
  MIC Measured: 1 µg/mL
[4]; [Ab] 0,5 µg/mL
  F=the rate of change in glucose concentration in relation to the reference: 121%
  Glucose concentration t=0: 144
  Glucose concentration t=60: 147
  Glucose concentration t=120: 147
  Glucose concentration t=180: 72
  dC/dT: 75
[4]; [Ab] 0,25 µg/mL
  F=the rate of change in glucose concentration in relation to the reference: 139%
  Glucose concentration t=0: 149
  Glucose concentration t=60: 152
  Glucose concentration t=120: 144
  Glucose concentration t=180: 58
  dC/dT: 86
[4]; [Ab] 1 µg/mL
  F=the rate of change in glucose concentration in relation to the reference: 77%
  Glucose concentration t=0: 144
  Glucose concentration t=60: 155
  Glucose concentration t=120: 148
  Glucose concentration t=180: 111
  Glucose concentration t=240: 53
  dC/dT: 48
[4]; [Ab] 2 µg/mL
  F=the rate of change in glucose concentration in relation to the reference: 9%
  Glucose concentration t=60: 161
  Glucose concentration t=120: 151
  Glucose concentration t=180: 143
  Glucose concentration t=240: 140
  dC/dT: 6
[4]; [Ab] 4 µg/mL
  F=the rate of change in glucose concentration in relation to the reference: 7%
  Glucose concentration t=0: 147
  Glucose concentration t=60: 163
  Glucose concentration t=120: 157
  Glucose concentration t=180: 148
  Glucose concentration t=240: 148
  dC/dT: 5
[4]; [Ab] 8 µg/mL
  F=the rate of change in glucose concentration in relation to the reference: 7%
  Glucose concentration t=0: 144
  Glucose concentration t=60: 156
  Glucose concentration t=120: 153
  Glucose concentration t=180: 150
  Glucose concentration t=240: 144
  dC/dT: 5
[4]; [Ab] 16 µg/mL
  F=the rate of change in glucose concentration in relation to the reference: 1%
  Glucose concentration t=0: 143
  Glucose concentration t=60: 155
  Glucose concentration t=120: 152
  Glucose concentration t=180: 149
  Glucose concentration t=240: 153
  dC/dT: 1
[4]; [Ab] 32 µg/mL
  F=the rate of change in glucose concentration in relation to the reference: 6%
  Glucose concentration t=0: 148
  Glucose concentration t=60: 158
  Glucose concentration t=120: 155
  Glucose concentration t=180: 150
  Glucose concentration t=240: 147
  dC/dT: 4
[5]; [9]
  MIC EUCAST, range in parentheses: 4 to 16 µg/mL
[5]; [10]
  MIC EUCAST: 8 µg/mL
[6]; [9]
  MIC EUCAST, range in parentheses: 0.25 to 1 µg/mL
[6]; [10]
  MIC EUCAST: 0.5 µg/mL
E. coli ATCC 25922 [7]; E. coli ATCC 25922, 256 µg/mL, from positive BC-bottles, within 2 hours, Table 7
  Qualitative susceptibility score: susceptible
E. coli ATCC 25922 [7]; [Ab] 256 µg/mL, t=0
  Glucose concentration t=0: 145
E. coli ATCC 25922 [7]; [Ab] 256 µg/mL, t=45
  Glucose concentration t=45: 155
E. coli ATCC 25922 [7]; [Ab] 256 µg/mL, t=60
  Glucose concentration t=60: 151
E. coli ATCC 25922 [7]; [Ab] 256 µg/mL, t=90
  Glucose concentration t=90: 140
E. coli ATCC 25922 [7]; [Ab] 256 µg/mL, t=105
  Glucose concentration t=105: 135
E. faecium [8]; E. faecium, 256 µg/mL, from positive BC-bottles, within 2 hours, Table 7
  Qualitative susceptibility score: non-susceptible
E. faecium [8]; [Ab] 256 µg/mL, t=0
  Glucose concentration t=0: 144
E. faecium [8]; [Ab] 256 µg/mL, t=45
  Glucose concentration t=45: 105
E. faecium [8]; [Ab] 256 µg/mL, t=60
  Glucose concentration t=60: 77
E. faecium [8]; [Ab] 256 µg/mL, t=75
  Glucose concentration t=75: 47
S. aureus; S. aureus, 256 µg/mL, plated cultures, Table 6
  Qualitative susceptibility score: susceptible
S. aureus; [Ab] 256 µg/mL, t=15
  Glucose concentration t=15: 137
S. aureus; [Ab] 256 µg/mL, t=30
  Glucose concentration t=30: 139
S. aureus; [Ab] 256 µg/mL, t=45
  Glucose concentration t=45: 131
